Data taken from patent publication US20220125765A1, “PHARMACEUTICAL COMBINATIONS COMPRISING MEBENDAZOLE AND A STRONG OR MODERATE CYP1A2 INHIBITOR” (ZEPHAPHARM LTD, priority 2019, published 2022).
Read-outs that look alike come from different tables or passages of the source.

Experiments:
A2780 = test: 2D monolayer CellTiter-Blue viability, ovarian cancer A2780; format: cell-based; conditions: for Test/Control (%) at Drug Concentration: 72 h; for IC50: Homo sapiens
Procedure: Mebendazole was tested in vitro across a panel of 12 tumor cell lines of ovarian and renal cancer by using a 2D monolayer assay. […] OVXF 899L and RXF 486L are P-gp expressing, multidrug resistant cell lines.
Anti-tumor activity is expressed as absolute and relative IC50/70 values, calculated by 4-parameter non-linear curve fit.

SXFO 678 = test: 2D monolayer CellTiter-Blue viability, osteosarcoma SXFO 678; format: cell-based; conditions: 72 h
Procedure: (§1) Seventeen compounds, including mebendazole (Batch no. […] Efficacy of compounds was assessed using CellTiter-Blue® Cell Viability Assay. Anti-tumor activity is expressed as absolute and relative IC50 and IC70 values, calculated by non-linear regression analysis.

NBXF SH-SY5Y = test: 2D monolayer CellTiter-Blue viability, neuroblastoma SH-SY5Y; format: cell-based; conditions: 72 h
Procedure: as §1

CYP2C9 = CYP2C9 (Homo sapiens, UniProt P11712); test: Cytochrome P450 reaction phenotyping, recombinant CYP2C9 (Bactosomes)
Sequence of CYP2C9 (P11712 whole entry, canonical isoform): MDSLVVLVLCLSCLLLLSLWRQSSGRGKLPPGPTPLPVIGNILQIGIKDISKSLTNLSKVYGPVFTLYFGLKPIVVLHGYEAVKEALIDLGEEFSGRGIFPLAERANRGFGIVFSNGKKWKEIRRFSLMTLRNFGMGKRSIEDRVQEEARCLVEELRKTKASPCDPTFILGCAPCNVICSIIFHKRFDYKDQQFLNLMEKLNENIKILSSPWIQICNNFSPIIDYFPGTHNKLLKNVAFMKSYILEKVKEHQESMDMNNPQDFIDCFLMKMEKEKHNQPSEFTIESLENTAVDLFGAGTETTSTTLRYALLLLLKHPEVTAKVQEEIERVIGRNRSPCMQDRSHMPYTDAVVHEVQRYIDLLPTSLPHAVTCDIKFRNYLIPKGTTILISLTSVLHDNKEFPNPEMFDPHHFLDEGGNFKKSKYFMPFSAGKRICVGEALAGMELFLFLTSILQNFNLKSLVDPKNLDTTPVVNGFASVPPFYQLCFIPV
Procedure: (§2) Incubations were also performed using control Bactosomes™ (no P450 enzymes present) to reveal any non-enzymatic degradation. Control compounds known to be metabolised specifically by each P450 isoform were included. All incubations were performed singularly for each test compound.
(§3) Incubations were also performed using control Bactosomes™ (no P450 enzymes present) to reveal any non-enzymatic degradation. Control compounds known to be metabolised specifically by each P450 isoform were included. All incubations were performed singularly for each test compound. […] The reactions were stopped by transferring an aliquot of incubate to quench solvent at the appropriate time points, in a 1:3 ratio. The termination plates were centrifuged at 3,000 rpm for 20 min at 4° C. to precipitate the protein.

CYP2D6 = CYP2D6 (Homo sapiens, UniProt P10635); test: Cytochrome P450 reaction phenotyping, recombinant CYP2D6 (Bactosomes)
Sequence of CYP2D6 (P10635 whole entry): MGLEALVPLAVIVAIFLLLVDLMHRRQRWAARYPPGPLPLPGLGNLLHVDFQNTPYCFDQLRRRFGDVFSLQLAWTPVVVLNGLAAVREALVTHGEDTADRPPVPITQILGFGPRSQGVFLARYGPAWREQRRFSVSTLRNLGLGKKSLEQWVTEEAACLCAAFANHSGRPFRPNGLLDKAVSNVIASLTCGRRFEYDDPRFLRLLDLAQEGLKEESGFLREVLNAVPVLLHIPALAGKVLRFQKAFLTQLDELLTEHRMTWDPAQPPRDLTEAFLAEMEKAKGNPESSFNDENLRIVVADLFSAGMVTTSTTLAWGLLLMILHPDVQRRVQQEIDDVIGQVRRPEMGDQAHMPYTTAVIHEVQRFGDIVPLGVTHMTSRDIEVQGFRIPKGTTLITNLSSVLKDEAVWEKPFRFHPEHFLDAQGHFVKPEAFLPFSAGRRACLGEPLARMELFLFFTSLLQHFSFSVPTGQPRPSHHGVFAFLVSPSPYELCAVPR
Procedure: as §2, §3

NBXF SHEP = test: 2D monolayer CellTiter-Blue viability, neuroblastoma SHEP; format: cell-based; conditions: 72 h
Procedure: as §1

IC50 (A2780; A2780, 72 h, read-out: Abs. IC50): 209 nM
IC50 (A2780; A2780, 72 h, read-out: Rel. IC50): 178 nM
Compound Remaining (% of 0 min) (CYP2C9; CYP2C9, 5 μM, 0 min): 100 % of 0 min
Compound Remaining (% of 0 min) (CYP2C9; CYP2C9, 5 μM, 5 min): 108 % of 0 min
Compound Remaining (% of 0 min) (CYP2C9; CYP2C9, 5 μM, 15 min): 108 % of 0 min
Compound Remaining (% of 0 min) (CYP2C9; CYP2C9, 5 μM, 30 min): 109 % of 0 min
Compound Remaining (% of 0 min) (CYP2C9; CYP2C9, 5 μM, 45 min): 105 % of 0 min
% compound remaining (CYP2C9; CYP2C9, 5 μM, time not stated): > 87.5%
t1/2 (CYP2C9; CYP2C9, substrate 5 μM): >2.25 h
half-life at 5 μM (CYP2C9; human, recombinant CYP2C9 (Bactosomes), pH 7.4): > 2.25 h
Compound Remaining (% of 0 min) (CYP2D6; CYP2D6, 5 μM, 0 min): 100 % of 0 min
Compound Remaining (% of 0 min) (CYP2D6; CYP2D6, 5 μM, 5 min): 93.6 % of 0 min
Compound Remaining (% of 0 min) (CYP2D6; CYP2D6, 5 μM, 15 min): 93.3 % of 0 min
Compound Remaining (% of 0 min) (CYP2D6; CYP2D6, 5 μM, 30 min): 94.6 % of 0 min
Compound Remaining (% of 0 min) (CYP2D6; CYP2D6, 5 μM, 45 min): 90.4 % of 0 min
% compound remaining (CYP2D6; CYP2D6, 5 μM, time not stated): > 87.5%
t1/2 (CYP2D6; CYP2D6, substrate 5 μM): >2.25 h
half-life at 5 μM (CYP2D6; human, recombinant CYP2D6 (Bactosomes), pH 7.4): > 2.25 h
Compound: COC(=O)Nc1nc2ccc(C(=O)c3ccccc3)cc2[nH]1 [Mebendazole, methyl N-(6-benzoyl-1H-benzimidazol-2-yl)carbamate]
Test/Control (%) at Drug Concentration (A2780; A2780, 1.0E+00 μM): 26%
Test/Control (%) at Drug Concentration (A2780; A2780, 1.0E−01 μM): 91%
Test/Control (%) at Drug Concentration (A2780; A2780, 1.0E−02 μM): 96%
Test/Control (%) at Drug Concentration (A2780; A2780, 1.0E−03 μM): 95%
Test/Control (%) at Drug Concentration (A2780; A2780, 1.0E−04 μM): 115%
Test/Control (%) at Drug Concentration (A2780; A2780, 3.2E+00 μM): 13%
Test/Control (%) at Drug Concentration (A2780; A2780, 3.2E−01 μM): 30%
Test/Control (%) at Drug Concentration (A2780; A2780, 3.2E−02 μM): 97%
Test/Control (%) at Drug Concentration (A2780; A2780, 3.2E−03 μM): 99%
Test/Control (%) at Drug Concentration (A2780; A2780, 3.2E−04 μM): 109%
Abs. IC70 (A2780; A2780, 72 h): 323 nM
Rel. IC70 (A2780; A2780, 72 h): 231 nM
Bot. (%) (A2780; A2780, 72 h, curve fit): 19%
Top (%) (A2780; A2780, 72 h, curve fit): 102%
Test/Control (%) at Drug Concentration (SXFO 678; SXFO 678, 1.0E+00 μM): 11%
Test/Control (%) at Drug Concentration (SXFO 678; SXFO 678, 1.0E+01 μM): 28%
Test/Control (%) at Drug Concentration (SXFO 678; SXFO 678, 1.0E+02 μM): 11%
Test/Control (%) at Drug Concentration (SXFO 678; SXFO 678, 1.0E−01 μM): 64%
Test/Control (%) at Drug Concentration (SXFO 678; SXFO 678, 1.0E−02 μM): 87%
Test/Control (%) at Drug Concentration (SXFO 678; SXFO 678, 3.2E+00 μM): 22%
Test/Control (%) at Drug Concentration (SXFO 678; SXFO 678, 3.2E+01 μM): 21%
Test/Control (%) at Drug Concentration (SXFO 678; SXFO 678, 3.2E−01 μM): 14%
Test/Control (%) at Drug Concentration (SXFO 678; SXFO 678, 3.2E−02 μM): 88%
Test/Control (%) at Drug Concentration (SXFO 678; SXFO 678, 3.2E−03 μM): 90%
Test/Control (%) at Drug Concentration (NBXF SH-SY5Y; 1.0E+00 μM): 1%
Test/Control (%) at Drug Concentration (NBXF SH-SY5Y; 1.0E+01 μM): 0%
Test/Control (%) at Drug Concentration (NBXF SH-SY5Y; 1.0E+02 μM): −1%
Test/Control (%) at Drug Concentration (NBXF SH-SY5Y; 1.0E−01 μM): 63%
Test/Control (%) at Drug Concentration (NBXF SH-SY5Y; 1.0E−02 μM): 81%
Test/Control (%) at Drug Concentration (NBXF SH-SY5Y; 3.2E+00 μM): 1%
Test/Control (%) at Drug Concentration (NBXF SH-SY5Y; 3.2E+01 μM): 0%
Test/Control (%) at Drug Concentration (NBXF SH-SY5Y; 3.2E−01 μM): 6%
Test/Control (%) at Drug Concentration (NBXF SH-SY5Y; 3.2E−02 μM): 78%
Test/Control (%) at Drug Concentration (NBXF SH-SY5Y; 3.2E−03 μM): 94%
Test/Control (%) at Drug Concentration (NBXF SHEP; 1.0E+00 μM): 20%
Test/Control (%) at Drug Concentration (NBXF SHEP; 1.0E+01 μM): 20%
Test/Control (%) at Drug Concentration (NBXF SHEP; 1.0E+02 μM): 16%
Test/Control (%) at Drug Concentration (NBXF SHEP; 1.0E−01 μM): 72%
